Activity calls are given as the source filed them.
How the values were obtained:
[1] = biological target: NAD-dependent protein deacylase sirtuin-5, mitochondrial (Homo sapiens, UniProt Q9NXA8); experiment: SIRT5 desuccinylase inhibitors, dose response, biochemical, fluorescence imaging, cherry-pick, set 5 (AID 720591);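 note: desuccinylation of succinyl peptide AMC substrate read as fluorescence after trypsin release; potency of inhibitors that lower fluorescence and may act on trypsin instead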
Paired box protein Pax-8 = Paired box protein Pax-8 (Homo sapiens, UniProt Q06710); experiment: inhibitors of PAX8-driven TPO luciferase reporter, dose response, RMG-I cells, cherry-pick (AID 687027); type: functional, cell-based;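 note: luciferase reporter driven by Pax8 target thyroperoxidase promoter measured by SteadyGlo luminescence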
Sequence of Paired box protein Pax-8 (Q06710 whole entry): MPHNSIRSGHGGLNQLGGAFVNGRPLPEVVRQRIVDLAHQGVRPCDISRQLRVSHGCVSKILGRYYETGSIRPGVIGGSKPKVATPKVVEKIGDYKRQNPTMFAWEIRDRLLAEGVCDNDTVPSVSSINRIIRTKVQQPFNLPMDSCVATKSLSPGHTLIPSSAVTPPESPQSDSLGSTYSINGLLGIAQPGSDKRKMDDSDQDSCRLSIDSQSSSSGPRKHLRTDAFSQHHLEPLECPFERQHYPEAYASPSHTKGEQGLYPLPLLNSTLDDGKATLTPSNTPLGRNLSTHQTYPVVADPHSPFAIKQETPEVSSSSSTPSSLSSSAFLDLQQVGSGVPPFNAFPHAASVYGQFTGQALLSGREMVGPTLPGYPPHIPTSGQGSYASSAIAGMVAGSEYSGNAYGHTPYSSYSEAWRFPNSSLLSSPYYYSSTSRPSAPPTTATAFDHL

[2] = A2780 ovarian cancer cell cytotoxicity, dose response, cytotoxicity control, plate reader, dry powder samples (AID 743046); type: functional, cell-based
[3] = NIH:OVCAR-3 ovarian cancer cell cytotoxicity, dose response, PAX8 inhibitor project, plate reader, dry powder samples (AID 743044); type: functional, cell-based
[4] = cytotoxicity in OVCAR8 ovarian cancer cells, dose response, PAX8 project, cell-based, plate reader, dry powder samples (AID 743197); type: functional; conditions: OVCAR-8
[5] = P. falciparum 3D7-ScDHODH growth inhibitors, dose response, SYBR Green, dry powder samples (AID 1159570); type: functional, cell-based;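 note: parasite growth measured after 72 hours of compound exposure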
[6] = P. falciparum Dd2 growth inhibitors, dose response, SYBR Green, cherry-picked samples (AID 1159567); type: functional, cell-based
[7] = P. falciparum Dd2 growth inhibitors, dose response, SYBR Green, dry powder samples (AID 1159566); type: functional, cell-based;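 note: potency for growth inhibition with lower SYBR green DNA signal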
[8] = P. falciparum ATP4 D1247Y mutant growth inhibitors, dose response, NITD609-resistant line, SYBR Green, dry powder (AID 1159571); type: functional, cell-based;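 note: parasites synchronized at ring stage by sorbitol before testing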
[9] = miR-122 activators in hepatoma reporter cells, dose response, cell-based, Huh7 psiCHECK-miR122, Renilla luciferase, cherry-picked (AID 651956); type: functional;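 note: huh7 hepatoma cells stably carrying a psiCHECK-2 miR-122 sensor plasmid; renilla luciferase signal reporting endogenous miR-122 activity after 48 h compound exposure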
[10] = HEK293T cytotoxicity, dose response, cytotoxicity control for miR-122 modulator project, cell-based, activator set, cherry-pick (AID 720690); type: functional;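 note: HEK293T human cells scored for general mammalian cytotoxicity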
[11] = biological target: Voltage-dependent T-type calcium channel subunit alpha-1H (Homo sapiens, UniProt O95180); type: functional;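 note: channel activity triggered by adding a high calcium stimulation buffer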
[12] = biological target: Disintegrin and metalloproteinase domain-containing protein 17 (Homo sapiens, UniProt P78536); experiment: exosite inhibitors of ADAM17, dose response, biochemical (AID 743260)
Sequence of Disintegrin and metalloproteinase domain-containing protein 17 (P78536 whole entry, the tested form may be a part): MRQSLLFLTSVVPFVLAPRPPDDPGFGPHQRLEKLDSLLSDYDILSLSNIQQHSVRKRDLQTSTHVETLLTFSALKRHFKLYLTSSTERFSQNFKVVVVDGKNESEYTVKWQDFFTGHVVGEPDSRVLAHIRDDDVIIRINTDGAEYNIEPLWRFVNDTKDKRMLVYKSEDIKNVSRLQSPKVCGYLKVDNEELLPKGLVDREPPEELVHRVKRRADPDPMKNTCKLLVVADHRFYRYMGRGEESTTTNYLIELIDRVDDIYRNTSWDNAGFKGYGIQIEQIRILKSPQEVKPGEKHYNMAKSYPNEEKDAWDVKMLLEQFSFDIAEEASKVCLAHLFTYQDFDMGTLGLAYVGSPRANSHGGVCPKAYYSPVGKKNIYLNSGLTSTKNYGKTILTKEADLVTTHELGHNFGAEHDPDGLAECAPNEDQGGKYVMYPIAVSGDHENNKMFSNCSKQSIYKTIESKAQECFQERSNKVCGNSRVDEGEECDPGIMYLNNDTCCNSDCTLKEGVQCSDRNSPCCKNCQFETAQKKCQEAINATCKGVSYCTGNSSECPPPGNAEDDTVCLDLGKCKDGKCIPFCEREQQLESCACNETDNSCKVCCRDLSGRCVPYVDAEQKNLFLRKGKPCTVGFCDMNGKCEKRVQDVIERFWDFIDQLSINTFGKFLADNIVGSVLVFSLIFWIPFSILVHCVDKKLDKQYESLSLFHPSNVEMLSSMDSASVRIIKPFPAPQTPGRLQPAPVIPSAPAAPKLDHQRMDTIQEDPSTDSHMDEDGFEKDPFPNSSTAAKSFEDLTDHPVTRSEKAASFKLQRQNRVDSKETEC

[13] = ADAM10 protease inhibitors, dose response, selectivity assay for ADAM17 exosite inhibitor project, biochemical, FRET peptide substrate, recombinant human ADAM10 (AID 743259);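 note: ADAM10 enzyme cleaving a FRET peptide substrate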
Cytochrome P450 3A4 = Cytochrome P450 3A4 (Homo sapiens, UniProt P08684);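 note: CYP3A4 tested as one member of a cytochrome P450 panel screen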
Sequence of Cytochrome P450 3A4 (P08684 whole entry): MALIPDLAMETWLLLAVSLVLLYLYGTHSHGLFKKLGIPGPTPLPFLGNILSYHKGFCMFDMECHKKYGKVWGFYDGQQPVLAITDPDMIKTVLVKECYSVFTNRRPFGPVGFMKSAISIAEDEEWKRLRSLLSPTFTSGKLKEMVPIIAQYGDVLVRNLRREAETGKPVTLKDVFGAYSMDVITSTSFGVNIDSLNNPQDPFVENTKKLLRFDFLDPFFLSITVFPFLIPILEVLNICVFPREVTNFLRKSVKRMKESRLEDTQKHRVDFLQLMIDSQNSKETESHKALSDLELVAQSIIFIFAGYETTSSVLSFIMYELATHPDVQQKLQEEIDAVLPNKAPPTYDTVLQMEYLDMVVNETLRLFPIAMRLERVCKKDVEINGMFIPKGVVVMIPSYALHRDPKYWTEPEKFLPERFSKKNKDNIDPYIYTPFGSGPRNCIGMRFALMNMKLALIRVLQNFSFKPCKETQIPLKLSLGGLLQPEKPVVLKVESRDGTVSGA

[14] = CEM21 cell cytotoxicity, dose response, cytotoxicity control, plate reader, dry powder (AID 687026); type: functional, cell-based
Protein skinhead-1 = biological target: T1, Protein skinhead-1 (Caenorhabditis elegans, UniProt P34707); type: functional
T1 sequence (P34707 whole entry): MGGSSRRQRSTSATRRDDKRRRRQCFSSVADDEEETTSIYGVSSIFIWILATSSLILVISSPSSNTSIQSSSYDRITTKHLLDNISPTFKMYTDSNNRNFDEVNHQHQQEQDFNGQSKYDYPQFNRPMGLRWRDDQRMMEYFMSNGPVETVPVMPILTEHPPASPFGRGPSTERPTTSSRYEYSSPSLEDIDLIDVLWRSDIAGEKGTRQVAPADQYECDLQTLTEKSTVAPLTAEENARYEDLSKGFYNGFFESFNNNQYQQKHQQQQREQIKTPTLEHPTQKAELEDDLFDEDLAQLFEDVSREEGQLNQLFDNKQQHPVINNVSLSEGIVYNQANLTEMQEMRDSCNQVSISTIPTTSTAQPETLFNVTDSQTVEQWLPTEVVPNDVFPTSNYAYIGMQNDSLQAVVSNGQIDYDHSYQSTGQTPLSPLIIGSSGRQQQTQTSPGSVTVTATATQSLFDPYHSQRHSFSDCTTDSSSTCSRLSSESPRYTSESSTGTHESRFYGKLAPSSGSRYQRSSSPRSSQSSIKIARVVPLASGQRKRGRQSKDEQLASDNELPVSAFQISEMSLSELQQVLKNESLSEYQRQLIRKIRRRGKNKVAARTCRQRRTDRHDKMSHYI

Kallikrein-7 = Kallikrein-7 (Homo sapiens, UniProt P49862); experiment: Fluorescence Intensity-based biochemical primary high throughput dose response assay to identify activators of kallikrein-7 (K7) zymogen.
Sequence of Kallikrein-7 (P49862 whole entry, the tested form may be a part): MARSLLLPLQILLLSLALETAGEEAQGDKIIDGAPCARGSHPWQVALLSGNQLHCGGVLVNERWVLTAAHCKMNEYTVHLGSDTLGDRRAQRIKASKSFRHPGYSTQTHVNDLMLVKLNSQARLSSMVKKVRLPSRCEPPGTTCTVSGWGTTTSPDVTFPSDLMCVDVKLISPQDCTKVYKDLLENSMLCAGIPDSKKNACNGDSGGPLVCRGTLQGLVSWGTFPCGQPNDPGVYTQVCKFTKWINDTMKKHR

[15] = biological target: T2, RNA-binding protein pos-1 (Caenorhabditis elegans, UniProt G5EF15); experiment: inhibitors of POS-1/mex-3 RNA binding, dose response, biochemical, fluorescence polarization (AID 1964);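 note: purified POS-1 fused to maltose binding protein made in E. coli; potency of compounds blocking POS-1 binding to fluorescent RNA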
T2 sequence (G5EF15 whole entry): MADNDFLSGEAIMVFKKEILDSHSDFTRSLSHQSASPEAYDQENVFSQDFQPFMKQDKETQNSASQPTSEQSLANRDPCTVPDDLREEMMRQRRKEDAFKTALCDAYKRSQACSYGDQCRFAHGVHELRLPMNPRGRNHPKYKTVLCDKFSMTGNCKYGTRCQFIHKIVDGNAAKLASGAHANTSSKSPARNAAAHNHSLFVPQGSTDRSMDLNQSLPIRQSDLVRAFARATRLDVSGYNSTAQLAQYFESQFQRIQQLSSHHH

[16] = biological target: T3, Zinc finger protein mex-5 (Caenorhabditis elegans, UniProt Q9XUB2); experiment: MEX-5/TCR-2 RNA interaction inhibitors, dose response, biochemical, C. elegans, fluorescence polarization (AID 1960)
T3 sequence (Q9XUB2 whole entry): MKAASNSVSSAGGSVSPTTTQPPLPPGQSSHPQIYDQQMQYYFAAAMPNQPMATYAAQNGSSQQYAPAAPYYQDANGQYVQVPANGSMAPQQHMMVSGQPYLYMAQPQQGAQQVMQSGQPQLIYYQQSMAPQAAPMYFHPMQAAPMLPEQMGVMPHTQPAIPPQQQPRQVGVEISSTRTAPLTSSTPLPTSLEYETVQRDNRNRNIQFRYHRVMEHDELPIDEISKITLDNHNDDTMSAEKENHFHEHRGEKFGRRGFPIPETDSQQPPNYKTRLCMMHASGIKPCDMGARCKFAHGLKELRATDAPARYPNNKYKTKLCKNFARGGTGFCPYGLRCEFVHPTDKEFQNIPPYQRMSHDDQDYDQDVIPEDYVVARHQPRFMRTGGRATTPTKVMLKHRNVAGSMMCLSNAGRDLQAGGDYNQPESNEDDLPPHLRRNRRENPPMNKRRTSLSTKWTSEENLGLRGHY

Beta-lactamase [17] = biological target: Beta-lactamase (Pseudomonas aeruginosa, UniProt Q79MP6);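 note: biochemical dose-response test of metallo-beta-lactamase enzyme inhibition, read out by epi-absorbance; purified recombinant IMP-1 metallo-beta-lactamase with nitrocefin as substrate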
Sequence of Beta-lactamase (Pseudomonas aeruginosa, UniProt Q79MP6) (Q79MP6 whole entry): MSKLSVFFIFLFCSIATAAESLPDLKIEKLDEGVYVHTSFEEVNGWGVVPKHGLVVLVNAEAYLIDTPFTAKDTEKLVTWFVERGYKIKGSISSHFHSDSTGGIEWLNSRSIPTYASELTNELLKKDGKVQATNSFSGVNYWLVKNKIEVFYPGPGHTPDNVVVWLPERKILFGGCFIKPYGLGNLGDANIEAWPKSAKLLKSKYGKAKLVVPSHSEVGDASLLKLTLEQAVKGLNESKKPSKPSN

Beta-lactamase [18] = biological target: Beta-lactamase (Salmonella choleraesuis (strain SC-B67), UniProt Q5J463)
Sequence of Beta-lactamase (Salmonella choleraesuis (strain SC-B67), UniProt Q5J463) (Q5J463 whole entry): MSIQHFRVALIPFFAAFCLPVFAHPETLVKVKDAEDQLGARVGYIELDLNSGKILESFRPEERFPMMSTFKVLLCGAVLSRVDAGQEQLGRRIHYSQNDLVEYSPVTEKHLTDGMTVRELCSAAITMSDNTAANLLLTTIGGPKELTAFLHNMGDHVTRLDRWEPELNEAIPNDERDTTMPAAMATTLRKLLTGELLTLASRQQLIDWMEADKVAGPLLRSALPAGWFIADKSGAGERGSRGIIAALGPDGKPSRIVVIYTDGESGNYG

H9c2 = experiment: cells; type: functional, cell-based; conditions: Rattus norvegicus, H9c2, Myocardium;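 note: confirmatory concentration-response retest of ultra-high-throughput screening hits for modulation of myocardial damage; cell death induced by hydrogen peroxide oxidative stress; compound pretreatment for 60 min then peroxide exposure for 2 h; potency is for protecting the cells against peroxide damage rather than for killing them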
[19] = biological target: T4, Polyadenylate-binding protein 1 (Homo sapiens, UniProt P11940); experiment: PABP1 MLLE–PAM2 interaction inhibitors, dose response, miRNA deadenylation inhibitor project, biochemical, fluorescence polarization, Cy5-PAM2 peptide, secondary (AID 602260); type: functional; conditions: read-out: IC50_Mean
T4 sequence (P11940 whole entry): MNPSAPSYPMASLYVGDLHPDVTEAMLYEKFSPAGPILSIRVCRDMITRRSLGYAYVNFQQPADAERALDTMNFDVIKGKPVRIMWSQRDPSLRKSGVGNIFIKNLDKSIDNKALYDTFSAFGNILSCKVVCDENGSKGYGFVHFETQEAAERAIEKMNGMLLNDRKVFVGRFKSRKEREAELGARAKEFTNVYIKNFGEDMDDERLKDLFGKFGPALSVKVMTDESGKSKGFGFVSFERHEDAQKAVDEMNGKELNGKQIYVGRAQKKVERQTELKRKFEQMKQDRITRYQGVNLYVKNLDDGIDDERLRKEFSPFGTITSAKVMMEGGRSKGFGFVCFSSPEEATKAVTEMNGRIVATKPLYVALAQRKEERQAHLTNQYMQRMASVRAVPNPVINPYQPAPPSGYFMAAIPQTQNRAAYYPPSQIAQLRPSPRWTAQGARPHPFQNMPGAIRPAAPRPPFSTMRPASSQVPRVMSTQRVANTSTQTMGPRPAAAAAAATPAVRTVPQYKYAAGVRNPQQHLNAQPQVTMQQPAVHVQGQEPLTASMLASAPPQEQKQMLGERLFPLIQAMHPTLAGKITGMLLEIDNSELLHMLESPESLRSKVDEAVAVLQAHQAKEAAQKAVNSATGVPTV

[20] = biological target: T4, Polyadenylate-binding protein 1; experiment: PABP1 MLLE–PAM2 binding inhibitor potency, dose response, biochemical, fluorescence polarization, FITC-PAM2 peptide (AID 602259); type: functional; conditions: read-out: IC50_Mean

Sequence of NAD-dependent protein deacylase sirtuin-5, mitochondrial (Q9NXA8 whole entry): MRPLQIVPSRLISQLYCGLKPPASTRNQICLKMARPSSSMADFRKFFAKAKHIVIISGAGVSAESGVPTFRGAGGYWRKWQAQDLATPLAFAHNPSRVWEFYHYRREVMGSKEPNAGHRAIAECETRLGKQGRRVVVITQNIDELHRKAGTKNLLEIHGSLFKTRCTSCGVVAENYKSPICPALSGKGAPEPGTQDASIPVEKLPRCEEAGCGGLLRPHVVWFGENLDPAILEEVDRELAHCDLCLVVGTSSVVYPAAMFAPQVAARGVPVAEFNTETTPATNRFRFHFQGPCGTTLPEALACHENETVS

Structure (SMILES): COCC(C)n1c(C)cc(C(=O)COC(=O)CCc2nc(O)c3ccccc3n2)c1C (stereo not given)
- AC50 [1]: > 30 µM (inactive)

Structure (SMILES): C[C@@H]1CN([C@H](C)CO)C(=O)c2cc(NS(=O)(=O)c3ccc(F)cc3)ccc2O[C@@H](C)CCCCO[C@H]1CN(C)S(=O)(=O)c1ccc(Cl)cc1
- AC50 (Paired box protein Pax-8): 6.83 µM (active)
- AC50 [2]: 2.97 µM (active)
- AC50 [3]: 32 µM (active)
- AC50 [4]: > 70 µM (inactive)

Structure (SMILES): C[C@H]1CN([C@@H](C)CO)C(=O)Cc2cc(NC(=O)Nc3ccc(C(F)(F)F)cc3)ccc2O[C@@H]1CN(C)C(=O)Nc1ccc2c(c1)OCO2
- AC50 [5]: 1.11 µM (active)
- AC50 [6]: 1.51 µM (active)
- AC50 [7]: 0.9 µM (active)
- AC50 [8]: 0.93 µM (active)

Structure (SMILES): CC(C)CC#Cc1ccc2c(c1)O[C@H](CN(C)C(=O)c1ccccc1)[C@H](C)CN([C@H](C)CO)S2(=O)=O
- AC50 [9]: 27.2 µM (active)
- AC50 [10]: 27.5 µM (active)

Structure (SMILES): COc1ccccc1C#Cc1ccc2c(c1)O[C@@H](CN(C)Cc1cccnc1)[C@@H](C)CN([C@H](C)CO)S2(=O)=O
- AC50 [9]: 25.4 µM (active)
- AC50 [10]: 9.3 µM (active)

Structure (SMILES): O=C(CC(c1ccccc1)c1ccccc1)Nc1ccc2c(c1)OCCO2
- EC50 [11]: 33.6 µM (active)
- IC50 [12]: > 69.5 µM (inactive)
- IC50 [13]: > 69.5 µM (inactive)
- AC50 (Cytochrome P450 3A4): 20 µM (inconclusive)

Structure (SMILES): CC(C)(C)c1ccc(-c2nc(NCc3cccnc3)c3ccccc3n2)cc1
- IC50 [12]: > 69.5 µM (inactive)
- IC50 [13]: > 7.72 µM (active)

Structure (SMILES): Cc1ccc(-c2nnc3ccc4c(C(F)(F)F)cc(C(F)(F)F)nc4n23)cc1
- AC50 [14]: > 70 µM (inactive)

Structure (SMILES): O=c1c(-c2ccc(Br)cc2)coc2c(CN3CCOCC3)c(O)ccc12
- IC50 (Protein skinhead-1): > 100 µM (inactive)
- EC50 (Kallikrein-7): 66.1 µM (inactive)

Structure (SMILES): CCOC(=O)c1c2c3c(cccc3n(C)c1=O)C(=O)c1ccccc1-2
- EC50 [15]: 8.67 µM (inconclusive)
- EC50 [16]: 9.59 µM (active)
- IC50 (Beta-lactamase [17]): > 59.6 µM (inactive)
- IC50 (Beta-lactamase [18]): > 59.6 µM (inactive)
- IC50 (H9c2): > 79 µM (inactive)
- IC50 [19]: > 66 µM (inactive)
- IC50 [20]: 37.2 µM (inactive)

Structure (SMILES): COc1cc(C(=O)Nc2nnc(Cc3ccccc3)s2)cc(OC)c1OC
- AC50 [1]: > 30 µM (inactive)

— ChEMBL document CHEMBL1201862, “PubChem BioAssay data set” (2004)
